Drawing on patent US20070117770A1, “Human ribosomal DNA (rDNA) and ribosomal RNA (rRNA) nucleic acids and uses thereof” (Cylene Pharmaceuticals, Inc., priority 2005, published 2007), this text covers remaining activity for two molecules.

Common to all, as to assay: Protein kinase inhibition assay
Common to all, as to assay type: biochemical

The target in one assay is PDGFRα(h) (Homo sapiens, UniProt P16234). As to conditions: read-out: percent residual activity of PDGFRα(h). The method, then: (§1) Certain compounds were tested for activity in protein kinase inhibition assays. All substrates were dissolved and diluted to working stocks in de-ionized water, apart from histone H1 (10× working stock in 20 mM MOPS pH 7.0), PDKtide (10× working stock in 50 mM Tris pH 7.0) ATF2 (which is typically stored at a 20× working stock in 50 mM Tris pH 7.5, 150 mM NaCl, 0.1 mM EGTA, 0.03% Brij-35, 50% glycerol, 1 mM benzamidine, 0.2 mM PMSF and 0.1% R-mercaptoethanol), KKLNRTLSFAEPG (SEQ ID NO:203) and RRRLSFAEPG (SEQ ID NO:204) (50 mM HEPES pH 7.4) and GGEEEEYFELVKKKK (SEQ ID NO:205) (20 mM MOPS pH 7.0). All kinases were pre-diluted to a 10× working concentration prior to addition into the assay. The composition of the dilution buffer for each kinase is detailed below.
(§2) In a final reaction volume of 25 μl, PDGFRα (h) (5-10 mU) is incubated with 8 mM MOPS pH 7.0, 0.2 mM EDTA, 0.1 mg/ml poly(Glu, Tyr) 4:1, 10 mM MnCl2, 10 mM MgAcetate and [gamma-33P-ATP] (specific activity approx. 500 cpm/pmol, concentration as required). The reaction is initiated by the addition of the MgATP mix. After incubation for 40 minutes at room temperature, the reaction is stopped by the addition of 5 μl of a 3% phosphoric acid solution. 10 μl of the reaction is then spotted onto a Filtermat A and washed three times for 5 minutes in 75 mM phosphoric acid and once in methanol prior to drying and scintillation counting.

The next assay deals with KDR(h) (Homo sapiens, UniProt P35968). Particulars: read-out: percent residual activity of KDR(h). The method, then: as §1
as §2, with “KDR” for “PDGFRα”, “0.33” for “0.1”, “myelin basic protein,” for “poly(Glu, Tyr) 4:1, 10 mM MnCl2,”, “[y-33P-ATP]” for “[gamma-33P-ATP]”, “P30 filtermat” for “Filtermat A”

A further assay deals with Rsk2(h) (Homo sapiens, UniProt P51812). As to conditions: read-out: percent residual activity of Rsk2(h). The method, then: as §1
as §2, with “Rsk2” for “PDGFRα”, “30 μM KKKNRTLSVA (SEQ ID NO:212),” for “0.1 mg/ml poly(Glu, Tyr) 4:1, 10 mM MnCl2,”, “P30 filtermat” for “Filtermat A”

A further assay has as its target TAK1(h) (Homo sapiens, UniProt O43318). Particulars: read-out: percent residual activity of TAK1(h). The method, then:
as §1
as §2, with “TAK1” for “PDGFRα”, “2” for “0.1”, “casein,” for “poly(Glu, Tyr) 4:1, 10 mM MnCl2,”, “P30 filtermat” for “Filtermat A”

A further assay concerns the target CDK5/p35(h) (Homo sapiens, UniProt Q00535). Particulars: read-out: percent residual activity of CDK5/p35(h). The method, then:
as §1
as §2, with “CDK5/p35” for “PDGFRα”, “histone H1,” for “poly(Glu, Tyr) 4:1, 10 mM MnCl2,”, “P30 filtermat” for “Filtermat A”

Another assay has as its target Arg(h) (Homo sapiens, UniProt P42684). As to conditions: read-out: percent residual activity of Arg(h). Here is the method: as §1
as §2, with “μl, Arg” for “μl, PDGFRα”, “EDTA, 50 μM EAIYAAPFAKKK (SEQ ID NO:206),” for “EDTA, 0.1 mg/ml poly(Glu, Tyr) 4:1, 10 mM MnCl2,”, “10 pi” for “10 μl”, “a P30 filtermat” for “a Filtermat A”

Chain of TAK1(h) (O43318 1-303 limits assumed): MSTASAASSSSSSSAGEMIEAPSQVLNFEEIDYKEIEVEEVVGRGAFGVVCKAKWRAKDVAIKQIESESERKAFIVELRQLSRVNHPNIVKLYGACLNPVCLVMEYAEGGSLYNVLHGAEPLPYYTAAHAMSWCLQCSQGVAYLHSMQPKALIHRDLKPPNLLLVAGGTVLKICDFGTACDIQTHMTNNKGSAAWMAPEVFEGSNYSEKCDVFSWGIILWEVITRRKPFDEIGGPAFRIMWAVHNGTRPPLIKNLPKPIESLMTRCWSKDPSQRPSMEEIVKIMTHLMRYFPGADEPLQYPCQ
Chain of Rsk2(h) (P51812 whole entry): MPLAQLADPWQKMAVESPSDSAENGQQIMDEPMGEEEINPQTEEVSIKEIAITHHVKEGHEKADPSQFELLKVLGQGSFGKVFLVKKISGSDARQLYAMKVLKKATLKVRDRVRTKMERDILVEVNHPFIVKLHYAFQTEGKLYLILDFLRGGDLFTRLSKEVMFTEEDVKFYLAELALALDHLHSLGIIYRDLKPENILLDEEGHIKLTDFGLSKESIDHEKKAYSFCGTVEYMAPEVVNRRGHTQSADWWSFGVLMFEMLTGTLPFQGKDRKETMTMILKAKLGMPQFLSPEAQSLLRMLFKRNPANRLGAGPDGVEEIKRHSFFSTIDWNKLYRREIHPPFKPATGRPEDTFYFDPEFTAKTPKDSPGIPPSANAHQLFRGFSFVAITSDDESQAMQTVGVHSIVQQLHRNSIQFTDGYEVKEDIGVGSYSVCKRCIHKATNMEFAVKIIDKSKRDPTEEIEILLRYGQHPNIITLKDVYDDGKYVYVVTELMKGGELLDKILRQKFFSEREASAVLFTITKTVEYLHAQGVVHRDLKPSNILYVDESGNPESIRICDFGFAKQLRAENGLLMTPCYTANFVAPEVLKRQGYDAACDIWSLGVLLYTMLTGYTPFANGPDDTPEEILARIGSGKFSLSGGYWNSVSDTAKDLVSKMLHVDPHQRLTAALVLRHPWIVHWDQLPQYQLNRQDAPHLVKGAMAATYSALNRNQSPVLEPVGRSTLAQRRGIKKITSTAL
Chain of PDGFRα(h) (P16234 24-1089): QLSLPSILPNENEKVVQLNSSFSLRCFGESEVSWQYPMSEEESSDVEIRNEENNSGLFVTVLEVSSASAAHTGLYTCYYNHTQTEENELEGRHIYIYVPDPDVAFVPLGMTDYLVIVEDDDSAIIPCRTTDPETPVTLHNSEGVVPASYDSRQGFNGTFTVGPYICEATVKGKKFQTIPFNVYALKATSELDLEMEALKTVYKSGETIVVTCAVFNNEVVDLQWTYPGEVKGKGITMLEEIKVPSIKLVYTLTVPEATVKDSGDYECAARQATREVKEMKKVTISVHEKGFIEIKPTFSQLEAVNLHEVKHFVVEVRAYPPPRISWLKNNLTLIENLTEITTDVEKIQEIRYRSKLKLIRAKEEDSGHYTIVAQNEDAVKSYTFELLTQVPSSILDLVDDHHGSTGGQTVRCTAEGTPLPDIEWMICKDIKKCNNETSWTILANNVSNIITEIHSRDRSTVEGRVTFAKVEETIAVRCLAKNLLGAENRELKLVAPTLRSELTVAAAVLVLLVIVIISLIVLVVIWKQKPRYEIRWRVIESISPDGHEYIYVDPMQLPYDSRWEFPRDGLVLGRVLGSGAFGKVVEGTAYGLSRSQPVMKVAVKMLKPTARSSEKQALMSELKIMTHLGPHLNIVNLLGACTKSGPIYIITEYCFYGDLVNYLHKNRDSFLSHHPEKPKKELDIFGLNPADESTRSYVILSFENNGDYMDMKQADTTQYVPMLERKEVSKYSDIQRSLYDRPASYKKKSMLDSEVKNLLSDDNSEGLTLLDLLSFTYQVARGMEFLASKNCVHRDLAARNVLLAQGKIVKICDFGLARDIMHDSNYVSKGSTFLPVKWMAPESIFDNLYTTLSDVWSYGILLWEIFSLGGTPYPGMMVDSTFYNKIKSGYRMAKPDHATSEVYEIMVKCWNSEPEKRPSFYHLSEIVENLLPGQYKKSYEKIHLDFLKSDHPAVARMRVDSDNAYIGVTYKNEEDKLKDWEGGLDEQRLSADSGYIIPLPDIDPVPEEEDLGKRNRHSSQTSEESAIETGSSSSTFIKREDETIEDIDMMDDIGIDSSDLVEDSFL
Chain of KDR(h) (P35968 20-1356): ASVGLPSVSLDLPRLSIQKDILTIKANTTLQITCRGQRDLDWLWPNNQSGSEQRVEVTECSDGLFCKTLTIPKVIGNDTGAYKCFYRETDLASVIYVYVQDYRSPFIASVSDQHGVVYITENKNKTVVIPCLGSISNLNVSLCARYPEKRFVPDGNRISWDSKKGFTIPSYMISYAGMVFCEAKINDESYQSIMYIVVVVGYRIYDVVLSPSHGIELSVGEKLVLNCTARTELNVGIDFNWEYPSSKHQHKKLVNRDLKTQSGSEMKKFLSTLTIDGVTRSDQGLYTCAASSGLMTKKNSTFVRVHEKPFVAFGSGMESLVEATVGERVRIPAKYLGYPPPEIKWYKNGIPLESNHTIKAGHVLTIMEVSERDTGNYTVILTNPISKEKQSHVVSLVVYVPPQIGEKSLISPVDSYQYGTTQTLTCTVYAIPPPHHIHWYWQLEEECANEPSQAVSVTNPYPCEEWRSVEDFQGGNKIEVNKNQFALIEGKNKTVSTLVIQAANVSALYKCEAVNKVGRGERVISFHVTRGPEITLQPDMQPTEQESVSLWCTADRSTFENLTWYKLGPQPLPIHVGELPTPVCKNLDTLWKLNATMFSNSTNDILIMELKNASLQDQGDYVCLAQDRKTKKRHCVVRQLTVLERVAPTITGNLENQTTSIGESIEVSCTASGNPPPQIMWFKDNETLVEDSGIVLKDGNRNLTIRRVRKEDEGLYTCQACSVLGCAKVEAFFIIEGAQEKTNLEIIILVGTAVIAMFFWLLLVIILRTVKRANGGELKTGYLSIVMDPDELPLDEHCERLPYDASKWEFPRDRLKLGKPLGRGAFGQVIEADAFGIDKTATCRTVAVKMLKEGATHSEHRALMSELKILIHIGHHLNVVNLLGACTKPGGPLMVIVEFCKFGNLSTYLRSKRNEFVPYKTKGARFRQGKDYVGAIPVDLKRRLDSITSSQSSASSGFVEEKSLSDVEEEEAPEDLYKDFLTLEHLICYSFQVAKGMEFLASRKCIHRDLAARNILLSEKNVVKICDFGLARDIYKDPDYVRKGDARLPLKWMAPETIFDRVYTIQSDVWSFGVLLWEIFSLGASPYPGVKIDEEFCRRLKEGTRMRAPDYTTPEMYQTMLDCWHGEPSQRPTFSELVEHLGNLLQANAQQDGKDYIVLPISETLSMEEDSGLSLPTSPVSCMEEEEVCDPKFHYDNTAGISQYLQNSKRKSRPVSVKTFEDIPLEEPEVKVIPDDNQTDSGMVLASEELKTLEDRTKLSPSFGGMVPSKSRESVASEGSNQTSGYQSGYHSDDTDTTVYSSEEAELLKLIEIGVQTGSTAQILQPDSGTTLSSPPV
Chain of Arg(h) (P42684 whole entry): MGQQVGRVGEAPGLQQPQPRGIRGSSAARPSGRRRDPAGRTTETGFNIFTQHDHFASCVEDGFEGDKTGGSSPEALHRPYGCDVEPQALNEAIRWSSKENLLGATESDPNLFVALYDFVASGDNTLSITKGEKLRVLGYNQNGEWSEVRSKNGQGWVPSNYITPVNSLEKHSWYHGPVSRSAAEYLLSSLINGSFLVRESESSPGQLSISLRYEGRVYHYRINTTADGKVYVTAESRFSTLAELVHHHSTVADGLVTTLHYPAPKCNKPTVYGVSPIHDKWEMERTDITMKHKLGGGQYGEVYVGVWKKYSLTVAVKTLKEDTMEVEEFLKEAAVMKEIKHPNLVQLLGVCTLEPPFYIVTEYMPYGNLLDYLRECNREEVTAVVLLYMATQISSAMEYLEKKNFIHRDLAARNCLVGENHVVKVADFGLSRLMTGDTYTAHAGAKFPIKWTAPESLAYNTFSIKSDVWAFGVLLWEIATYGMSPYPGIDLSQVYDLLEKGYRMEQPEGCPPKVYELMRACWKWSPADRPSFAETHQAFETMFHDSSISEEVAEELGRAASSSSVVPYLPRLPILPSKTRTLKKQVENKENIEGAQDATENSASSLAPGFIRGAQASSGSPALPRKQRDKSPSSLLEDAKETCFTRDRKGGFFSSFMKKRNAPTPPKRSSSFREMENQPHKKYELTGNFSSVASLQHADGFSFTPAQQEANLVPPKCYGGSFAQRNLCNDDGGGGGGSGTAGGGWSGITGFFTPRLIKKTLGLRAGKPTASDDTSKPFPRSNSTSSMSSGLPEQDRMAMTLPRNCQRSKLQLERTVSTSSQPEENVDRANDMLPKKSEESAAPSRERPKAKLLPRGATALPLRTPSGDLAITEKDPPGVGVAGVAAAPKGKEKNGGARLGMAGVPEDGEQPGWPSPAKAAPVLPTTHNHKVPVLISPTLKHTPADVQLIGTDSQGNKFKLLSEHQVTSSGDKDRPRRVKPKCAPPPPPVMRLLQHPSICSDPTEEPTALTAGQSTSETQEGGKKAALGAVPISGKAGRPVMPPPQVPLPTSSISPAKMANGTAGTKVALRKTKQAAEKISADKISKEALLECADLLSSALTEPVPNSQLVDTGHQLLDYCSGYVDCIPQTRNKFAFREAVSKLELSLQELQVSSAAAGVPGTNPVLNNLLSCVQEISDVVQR

Regarding `CN1CCCC1CCNC(=O)c1cn2c3c(c(N4CCC(c5cnccn5)C4)c(F)cc3c1=O)Oc1cc3ccccc3cc1-2` (stereo not drawn) [Compound A-1], the remaining activity at 2.5 µM stood at 108% at PDGFRα(h); 90% at KDR(h); 60% on Rsk2(h); 98% on TAK1(h); 83% on CDK5/p35(h); 46% on Arg(h).

Regarding `CC(=O)N1CCN(c2ccc3c(=O)c(C(=O)NCCN4CCCC4)c4n(C)c5ccccc5n4c3n2)CC1` [Compound B-1], the remaining activity at 2.5 µM stood at 106% at PDGFRα(h); 95% on KDR(h); 106% at Rsk2(h); 95% at TAK1(h); 104% at CDK5/p35(h); 94% at Arg(h).
